Our source for the IC50 values is US10323022B2, “Pyrrolidinyl urea, pyrrolidinyl thiourea and pyrrolidinyl guanidine compounds as TrkA kinase inhibitors” (Array BioPharma Inc., priority 2011, dated 2019).

In the experiment the target is TrkA (Homo sapiens (Human), UniProt P04629). In words: TrkA Omnia Assay. Format: biochemical. To be noted: averaged IC50; 20 nM enzyme, 500 μM ATP, 10 μM peptide substrate. Put shortly: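 Recombinant TrkA (20 nM) preincubated 10 min at ambient temperature with compound, then Omnia Tyr Peptide #4 (10 μM) and ATP (500 μM) added in 25 mM MOPS pH 7.5, 5 mM MgCl2, 0.005% Triton X-100. Fluorescence (ex 360/em 485 nm) followed continuously for 70 min; IC50 from initial rates by 4- or 5-parameter logistic fit.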
Sequence of TrkA (P04629 33-796): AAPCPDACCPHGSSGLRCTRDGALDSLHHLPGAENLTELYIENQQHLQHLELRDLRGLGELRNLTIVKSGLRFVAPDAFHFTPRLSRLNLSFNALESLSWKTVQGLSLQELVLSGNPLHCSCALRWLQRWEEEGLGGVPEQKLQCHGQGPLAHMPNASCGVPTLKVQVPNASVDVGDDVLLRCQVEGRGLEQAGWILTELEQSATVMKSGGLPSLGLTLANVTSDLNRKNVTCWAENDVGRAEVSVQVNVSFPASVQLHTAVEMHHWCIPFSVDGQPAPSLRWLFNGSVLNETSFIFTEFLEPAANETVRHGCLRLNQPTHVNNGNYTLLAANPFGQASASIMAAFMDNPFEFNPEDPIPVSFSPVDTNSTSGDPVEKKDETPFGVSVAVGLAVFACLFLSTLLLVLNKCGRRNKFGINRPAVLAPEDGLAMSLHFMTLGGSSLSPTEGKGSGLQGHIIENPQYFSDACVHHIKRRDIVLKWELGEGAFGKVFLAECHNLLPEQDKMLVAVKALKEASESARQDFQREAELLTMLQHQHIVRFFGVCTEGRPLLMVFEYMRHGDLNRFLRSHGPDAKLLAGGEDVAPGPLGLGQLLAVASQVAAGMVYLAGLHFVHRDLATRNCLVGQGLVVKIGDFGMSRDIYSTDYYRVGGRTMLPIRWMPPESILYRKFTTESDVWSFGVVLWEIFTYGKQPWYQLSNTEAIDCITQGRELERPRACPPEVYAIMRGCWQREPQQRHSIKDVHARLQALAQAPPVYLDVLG
Consider `COCCN1C[C@@H](NC(=O)Nc2c(Br)c(-c3ccccc3)nn2-c2ccccc2)[C@H](c2cncc(F)c2)C1` (relative stereo) [Example 435, 1-(4-bromo-1,3-diphenyl-1H-pyrazol-5-yl)-3-(trans-4-(5-fluoropyridin-3-yl)-1-(2-methoxyethyl)pyrrolidin-3-yl)urea], for which the IC50 was under 100 nM.

`COCCN1C[C@@H](NC(=O)Nc2c(Cl)c(-c3ccccc3)nn2-c2ccccc2)[C@H](c2cncc(F)c2)C1` (relative stereo) [Example 436, 1-(4-chloro-1,3-diphenyl-1H-pyrazol-5-yl)-3-(trans-4-(5-fluoropyridin-3-yl)-1-(2-methoxyethyl)pyrrolidin-3-yl)urea] showed a concentration for half-maximal inhibition (IC50) of under 100 nM.

Regarding `COCCN1C[C@@H](NC(=O)Nc2c(C)c(=O)[nH]n2-c2ccccc2)[C@H](c2ccc(Cl)c(F)c2)C1` (relative stereo) [Example 609, 1-((trans)-4-(4-chloro-3-fluorophenyl)-1-(2-methoxyethyl)pyrrolidin-3-yl)-3-(4-methyl-5-oxo-2-phenyl-2,5-dihydro-1H-pyrazol-3-yl)urea], the IC50 is under 100 nM.

For `COCCN1C[C@@H](NC(=O)Nc2c(C)c(=O)[nH]n2-c2ccccc2)[C@H](c2ccc(F)c(Cl)c2)C1` (relative stereo) [Example 610, 1-((trans)-4-(3-chloro-4-fluorophenyl)-1-(2-methoxyethyl)pyrrolidin-3-yl)-3-(4-methyl-5-oxo-2-phenyl-2,5-dihydro-1H-pyrazol-3-yl)urea], the IC50 was under 100 nM.

With `COCCN1C[C@@H](NC(=O)Nc2c(C)c(=O)[nH]n2-c2ccccc2)[C@H](c2cc(F)cc(Cl)c2)C1` (relative stereo) [Example 614, 1-((trans)-4-(3-chloro-5-fluorophenyl)-1-(2-methoxyethyl)pyrrolidin-3-yl)-3-(4-methyl-5-oxo-2-phenyl-2,5-dihydro-1H-pyrazol-3-yl)urea], the IC50 was under 100 nM.

Compound `COCCN1C[C@@H](NC(=O)Nc2c(C(N)=O)c(C)nn2-c2ccccc2)[C@H](c2ccc(F)c(Cl)c2)C1` (relative stereo) [Example 623, 5-(3-((trans)-4-(3-chloro-4-fluorophenyl)-1-(2-methoxyethyl)pyrrolidin-3-yl)ureido)-3-methyl-1-phenyl-1H-pyrazole-4-carboxamide] showed an IC50 of under 100 nM.

Compound `COCCN1C[C@@H](NC(=O)Nc2c(C(N)=O)c(C)nn2-c2ccccc2)[C@H](c2ccc(Cl)c(F)c2)C1` (relative stereo) [Example 624, 5-(3-((trans)-4-(4-chloro-3-fluorophenyl)-1-(2-methoxyethyl)pyrrolidin-3-yl)ureido)-3-methyl-1-phenyl-1H-pyrazole-4-carboxamide] gave an IC50 of under 100 nM.

Compound `COCCN1C[C@@H](NC(=O)Nc2c(C(N)=O)c(C)nn2-c2ccccc2)[C@H](c2cc(F)cc(Cl)c2)C1` (relative stereo) [Example 625, 5-(3-((trans)-4-(3-chloro-5-fluorophenyl)-1-(2-methoxyethyl)pyrrolidin-3-yl)ureido)-3-methyl-1-phenyl-1H-pyrazole-4-carboxamide] displayed a concentration for half-maximal inhibition (IC50) of under 100 nM.

In the case of `COCCN1C[C@@H](NC(=O)Nc2c3c(nn2-c2ccccc2)CCC3)[C@H](c2nccs2)C1` (stereo in doubt) [Example 49, 1-(1-(2-methoxyethyl)-4-(thiazol-2-yl)pyrrolidin-3-yl)-3-(2-phenyl-2,4,5,6-tetrahydrocyclopenta[c]pyrazol-3-yl)urea], the IC50 was in the range of 1000 to 10000 nM.

Regarding `COCC(C(=O)OC)N1CC(NC(=O)Nc2c3c(nn2-c2ccccc2)CCC3)[C@H](c2ccccc2)C1` (stereo in doubt) [Example 258, methyl 3-methoxy-2-((trans)-3-phenyl-4-(3-(2-phenyl-2,4,5,6-tetrahydrocyclopenta[c]pyrazol-3-yl)ureido)pyrrolidin-1-yl)propanoate], the IC50 was under 100 nM.

Compound `COCCN1C[C@@H](NC(=O)Nc2cc(C(C)(C)C)nn2-c2ccccc2)[C@H](c2ccccc2)C1` [Example 1, 1-(3-tert-butyl-1-phenyl-H-pyrazol-5-yl)-3-(trans-1-(2-methoxyethyl)-4-phenylpyrrolidin-3-yl)urea] registered an IC50 of under 100 nM.

`COCCN1C[C@@H](NC(=O)Nc2cc(C(C)(C)C)nn2C2CCOCC2)[C@H](c2ccccc2)C1` [Example 34, 1-(3-tert-butyl-1-(tetrahyro-2H-pyran-4-yl)-1H-pyrazol-5-yl)-3-(trans-1-(2-methoxyethyl)-4-phenylpyrrolidin-3-yl)urea] returned an IC50 of 1000 to 10000 nM.

With `COCCN1C[C@@H](NC(=O)Nc2c3c(nn2-c2ccccc2)C(C)(C)CC3)[C@H](c2ccccc2)C1` [Example 36, 1-(6,6-dimethyl-2-phenyl-2,4,5,6-tetrahydro-yclopenta [c]pyrazol-3-yl)-3-(trans-1-(2-methoxyethyl)-4-phenyl-pyrrolidin-3-yl)urea], the IC50 was under 100 nM.

In turn, `COCCN1CC(c2sc(C)nc2C)[C@H](NC(=O)Nc2c3c(nn2-c2ccccc2)CCC3)C1` (stereo partly drawn) [Example 45, 1-((3,4-trans)-4-(2,4-dimethylthiazol-5-yl)-1-(2-methoxyethyl)pyrrolidin-3-yl)-3-(2-phenyl-2,4,5,6-tetrahydrocyclopenta[c]pyrazol-3-yl)urea] yielded an IC50 of 1000 to 10000 nM.

`COCCN1CC(NC(=O)Nc2c3c(nn2-c2ccccc2)CCC3)[C@H](c2cccc(OC)c2)C1` (stereo partly drawn) [Example 48, 1-((3,4-trans)-1-(2-methoxyethyl)-4-(3-methoxyphenyl)pyrrolidin-3-yl)-3-(2-phenyl-2,4,5,6-tetrahydrocyclopenta[c]pyrazol-3-yl)urea] came in with an IC50 of 100 to 1000 nM.

In turn, `COCCN1C[C@@H](NC(=O)Nc2cc(C(F)(F)F)nn2-c2ccccc2)[C@H](c2ccccc2)C1` [Example 53, 1-((3S,4R)-1-(2-methoxyethyl)-4-phenylpyrrolidin-3-yl)-3-(1-phenyl-3-(trifluoromethyl)-1H-pyrazol-5-yl)urea] displayed an IC50 of under 100 nM.

Compound `COCCN1C[C@@H](NC(=O)Nc2c(C)c(-c3ccccc3)nn2C)[C@H](c2ccccc2)C1` [Example 54, 1-(1,4-dimethyl-3-phenyl-1H-pyrazol-5-yl)-3-((3S,4R)-1-(2-methoxy-ethyl)-4-phenylpyrrolidin-3-yl)urea] registered a 50% inhibitory concentration (IC50) of 1000 to 10000 nM.

`COCCN1C[C@@H](NC(=O)Nc2cc(C3CC3)nn2C)[C@H](c2cc(F)cc(F)c2)C1` [Example 55, 1-(3-cyclopropyl-1-methyl-1H-pyrazol-5-yl)-3-((3S,4R)-4-(3,5-difluorophenyl)-1-(2-methoxyethyl)pyrrolidin-3-yl)urea] had an IC50 of 100 to 1000 nM.

With `COCCN1C[C@@H](NC(=O)Nc2cc(-c3ccccn3)nn2C)[C@H](c2cc(F)cc(F)c2)C1` [Example 56, 1-((3S,4R)-4-(3,5-difluorophenyl)-1-(2-methoxyethyl)pyrrolidin-3-yl)-3-(1-methyl-3-(pyridin-2-yl)-1H-pyrazol-5-yl)urea], the IC50 was under 100 nM.

For the compound `COCCN1C[C@@H](NC(=O)Nc2cc(-c3cccnc3)nn2C)[C@H](c2cc(F)cc(F)c2)C1` [Example 57, 1-((3S,4R)-4-(3,5-difluorophenyl)-1-(2-methoxyethyl)pyrrolidin-3-yl)-3-(1-methyl-3-(pyridin-3-yl)-1H-pyrazol-5-yl)urea], the IC50 was under 100 nM.

Regarding `COCCN1C[C@@H](NC(=O)Nc2cc(-c3cnn(C)c3)nn2C)[C@H](c2ccc(F)c(F)c2)C1` [Example 58, 1-((3S,4R)-4-(3,4-difluorophenyl)-1-(2-methoxyethyl)pyrrolidin-3-yl)-3-(1,1′-dimethyl-1H,1′H-3,4′-bipyrazol-5-yl)urea], the IC50 was under 100 nM.

For the compound `COCCN1C[C@@H](NC(=O)Nc2cc(-c3cccc(C#N)c3)nn2C)[C@H](c2ccc(F)c(F)c2)C1` [Example 59, 1-(3-(3-cyanophenyl)-1-methyl-1H-pyrazol-5-yl)-3-((3S,4R)-4-(3,4-difluorophenyl)-1-(2-methoxyethyl)pyrrolidin-3-yl)urea], the half-maximal inhibitory concentration (IC50) is under 100 nM.

As for `COCCN1C[C@@H](NC(=O)Nc2cc(-c3ccc(C#N)cc3)nn2C)[C@H](c2ccc(F)c(F)c2)C1` [Example 60, 1-(3-(4-cyanophenyl)-1-methyl-1H-pyrazol-5-yl)-3-((3S,4R)-4-(3,4-difluorophenyl)-1-(2-methoxyethyl)pyrrolidin-3-yl)urea], the IC50 is under 100 nM.

Compound `COCCN1C[C@@H](NC(=O)Nc2cc(-c3cccc4nccn34)nn2C)[C@H](c2ccc(F)c(F)c2)C1` [Example 61, 1-((3S,4R)-4-(3,4-difluorophenyl)-1-(2-methoxyethyl)pyrrolidin-3-yl)-3-(3-(imidazo[1,2-a]pyridin-5-yl)-1-methyl-1H-pyrazol-5-yl)urea] came in with an IC50 of under 100 nM.

In turn, `COCCN1C[C@@H](NC(=O)Nc2c(Cl)c(-c3ccccc3)nn2-c2ccccc2)[C@H](c2ccc(F)c(F)c2)C1` [Example 62, 1-(4-chloro-1,3-diphenyl-1H-pyrazol-5-yl)-3-((3S,4R)-4-(3,4-difluorophenyl)-1-(2-methoxyethyl)pyrrolidin-3-yl)urea] yielded an IC50 of under 100 nM.

Take `COCCN1C[C@@H](NC(=O)Nc2c(Br)c(-c3ccccc3)nn2-c2ccccc2)[C@H](c2ccc(F)c(F)c2)C1` [Example 63, 1-(4-bromo-1,3-diphenyl-1H-pyrazol-5-yl)-3-((3S,4R)-4-(3,4-difluorophenyl)-1-(2-methoxyethyl)pyrrolidin-3-yl)urea]: the half-maximal inhibitory concentration (IC50) is under 100 nM.

With `COCCN1C[C@@H](NC(=O)Nc2c(Cl)c(C)nn2-c2ccccc2)[C@H](c2ccc(F)c(F)c2)C1` [Example 64, 1-(4-chloro-3-methyl-1-phenyl-1H-pyrazol-5-yl)-3-((3S,4R)-4-(3,4-difluorophenyl)-1-(2-methoxyethyl)pyrrolidin-3-yl)urea], the 50% inhibitory concentration (IC50) was under 100 nM.

`COCCN1C[C@@H](NC(=O)Nc2c(-c3ccccc3)c(C)nn2C)[C@H](c2ccc(F)c(F)c2)C1` [Example 65, 1-((3S,4R)-4-(3,4-difluorophenyl)-1-(2-methoxyethyl)pyrrolidin-3-yl)-3-(1,3-dimethyl-4-phenyl-1H-pyrazol-5-yl) urea] gave an IC50 of under 100 nM.

The term IC50 denotes the concentration that gives 50% inhibition. Higher therefore signals weaker potency in that assay.
